This assay relates to cell viability. Put plainly: Cellular proliferation assay (percent CTG activity, FIG. 23C). Type of assay: cell-based. The following applies: agent alone, cell line not stated.

Take `COCOC[C@H]1C[C@H]2COc3c(Sc4cnc(N5CCC6(CC5)CO[C@@H](C)[C@H]6N)c(CO)n4)ccnc3N2C1` [compound of Formula I]: the “percent CTG activity (cell viability), single agent” value is reported as “minimal effect on cell viability”.

For the origin of these results see patent US20240058352A1, “COMBINATION THERAPIES FOR THE TREATMENT OF CANCER” (Erasca, Inc., priority 2020, published 2024).
